We go through nine compounds from US20170050966A1, “INHIBITING THE TRANSIENT RECEPTOR POTENTIAL A1 ION CHANNEL” (HYDRA BIOSCIENCES, INC., priority 2014, published 2017).

Values after ≈ are worked out from the molar mass of the structure shown. Where two headings read alike, the source gives them in different places.

One data set deals with T1, human TRPA1 (hTRPA1) (Homo sapiens, UniProt O75762).
T1 construct: expressed in transfected cells
Put plainly: Inhibition of human TRPA1, whole-cell patch clamp. It is filed as cell-based. The note with it: antagonist effect, whole cell patch configuration; read-out: hTRPA1. The procedure:
Data for TRPA1 inhibition was obtained by this method for the indicated compounds of Formula (I), with the relevant data included in Table 14 below. All currents were recorded in whole-cell configuration using EPC-9 and EPC-10 amplifiers and Patchmaster software (HEKA). […] The standard pipette solution consisted of 140 mM CsAsp, 10 mM EGTA, 10 mM HEPES, […], 1.91 mM CaCl2, and up to 0.3 mM Na2GTP, with pH adjusted to 7.2 with CsOH. In addition, a solution containing 145 mM CsCl, 10 mM HEPES, 10 mM EGTA, and up to 0.3 mM Na2GTP and 1 mM MgCl2 (pH 7.2 adjusted with CsOH) can be used. The standard bath solution contained 150 mM NaCl, 10 mM HEPES, 10 mM glucose, 4.5 mM KCl, 1 mM EGTA, 3 mM MgCl2, with pH adjusted to 7.4 with NaOH. In some instances, 2 mM CaCl2 was added in place of EGTA and the concentration of MgCl2 was reduced to 1 mM.
Data were collected either by continuous recordings at −60 mV or by applying voltage ramps from a holding potential of 0 mV every 4 s. Continuous recordings were collected at 400 Hz and digitally filtered off-line at 10 Hz for presentation. Voltage ramps were applied from −100 mV to 100 mV over the course of 400 ms, and data were collected at 10 kHz and filtered at […]. Inward and outward currents were analyzed from the ramps at −80 and 80 mV, respectively. Liquid junction potential correction was not used.
Solutions were switched using a gravity-fed continuous focal perfusion system. To achieve rapid temperature changes, two temperature control, and perfusion systems were employed simultaneously. For temperatures greater than or equal to 22° C., a Warner Instruments bipolar temperature controller (TC-344B) and inline heater (SHM-8) were used. […] Temperatures were confirmed using a thermistor (Warner Instruments, TA-29), with temperatures at the recorded cell estimated to be within +/−2° C. of those reported.
The antagonist effects of compounds of Formula (I) against human TRPA1 (“hTRPA1”) in a whole cell patch configuration were evaluated using the in vitro assay protocol described above.

Data set [1] is described as follows: Metabolic stability in liver microsomes. The note with it: 1 μM test compound; for half-life at 1 μM: human, liver microsomes, 37° C. The data set is classed as in vitro ADME, human. On the procedure: (§1) Metabolic stability of the compounds of Formula (I) was determined by standard liver microsome assays. Briefly, metabolic stability was tested by adding the compound to be tested dissolved in DMSO to human, dog, or rat liver microsomes. Assays were run with a starting concentration of 1 μM test compound. The reaction was initiated by addition of nicotinamide adenine dinucleotide phosphate[…] (NADPH) regeneration components at 37° C., at which time an aliquot was immediately quenched in an ice-cold acetonitrile/methanol/water solution. Reaction mixture was incubated at 37° C. on a shaker, and additional aliquots were taken at 7, 15, 30 and 60 minutes. Following quench and centrifugation, samples were analyzed on HPLC/MS/MS.

A short description of data set [2]: Solubility in Normal Ringer Solution. It is filed as physicochemical. The note with it: aqueous buffer, kinetic from dmso stock, pH 7.4, room temperature. On the procedure: Compounds of the invention were also tested for solubility in Normal Ringer Solution. […] Following vortex and incubation for 40 minutes at room temperature, solutions were filtered, quenched with acetonitrile, and analyzed by liquid chromatography. Solubility limits were determined by comparison to a standard curve. […] Solubility is reported as “greater than” if the observed increase between the last 2 dilutions tested is greater than 2-fold.

The nature of data set [3]: Metabolic stability in liver microsomes. It is filed as in vitro ADME. On the procedure: as §1
Data set [4] in a line: Oral bioavailability of solutions in non-fasted rats. The note with it: rat, in vivo, oral solution, read-out: Rat % F. On the procedure:
Early bioavailability studies in rat were conducted with solutions of the compounds of the invention. Compounds were delivered via oral administration as a solution in an appropriate excipient. Example formulations include, but are not limited to: 4% DMSO, 10% Solutol HS-15, and 86% water or 4% DMSO, 5% Tween, 25% Cremophor EL. Target concentrations were typically 1 mg/mL, and administered via oral gavage to non-fasted rats. The absolute bioavailability is the dose-corrected area under the curve (AUC) non-intravenous divided by the dose corrected AUC intravenous. The formula for calculating F for a drug administered by the oral route (PO) is given below:
% F=AUC PO×Dose IV/AUC IV×Dose PO

The nature of data set [5]: Kinetic solubility in buffered solutions. It is filed as physicochemical. The note with it: aqueous buffer, kinetic from dmso stock, 24 hours ambient. The procedure:
The solubilities of the compounds of Formula (I) were tested using the procedure outlined in Kerns, E. H., J Pharm Sci (2001) 90:1838-1858, incorporated herein by reference and described below. Data for solubility was obtained by this method for compounds of Formula (I) and included in Table 3. The chromatographic data was performed by HPLC using an Xbridge Shield RP18 column with the following column dimensions: 4.6×30 mm, 3.5 μm. The mobile phase consisted of deionized water (MPA) with trifluoroacetic acid added in at 0.1% (v/v) (MPC) and HPLC-grade acetonitrile (MPB). The mobile phase flow rate was 2.5 mL/min with the column and sampling operating at ambient temperature. UV detection was set to 280 nm.
Samples for analysis of the compounds of Formula (I) were prepared at a % v/v=1/19 (i.e., 10 μL of the stock solution into 190 μL of buffer) by spiking stock solutions of the compounds of Formula (I) into buffered solutions. Three buffered solution systems were prepared: pH 4.0 prepared from 50 mM sodium acetate in a 5% dextrose in water solution, pH 7.4 prepared from 75 mM sodium phosphate in a 1:1 ratio of sterilized water for injection to a 5% dextrose in water solution, and pH 9.0 prepared from 50 mM sodium bicarbonate in a 1:2 ratio of sterilized water for injection to a 5% dextrose in water solution. The samples were incubated on a microplate shaker at 300 rpm for 24 hours at ambient temperature. Following incubation, the samples were centrifuged for five minutes at 13 k rpm at ambient temperature. The resulting supernantant was extracted for HPLC analysis.

Setting [6] is: dog liver microsomes, both sexes, read-out: Half-Life both sexes.
Setting [7] is: rat liver microsomes, both sexes, read-out: Half-Life Both sexes.
Where [8] appears, read: sodium acetate buffer, pH 4.0, 50 mM sodium acetate, read-out: pH 4.0 solubility.
Where [9] appears, read: sodium bicarbonate buffer, pH 9.0, 50 mM sodium bicarbonate, read-out: pH 9.0 solubility.
[10] abbreviates: sodium phosphate buffer, pH 7.4, 75 mM sodium phosphate, read-out: pH 7.4 solubility.
Setting [11] is: rat liver microsomes, male, read-out: Male Half-Life.

T1 sequence (O75762 whole entry): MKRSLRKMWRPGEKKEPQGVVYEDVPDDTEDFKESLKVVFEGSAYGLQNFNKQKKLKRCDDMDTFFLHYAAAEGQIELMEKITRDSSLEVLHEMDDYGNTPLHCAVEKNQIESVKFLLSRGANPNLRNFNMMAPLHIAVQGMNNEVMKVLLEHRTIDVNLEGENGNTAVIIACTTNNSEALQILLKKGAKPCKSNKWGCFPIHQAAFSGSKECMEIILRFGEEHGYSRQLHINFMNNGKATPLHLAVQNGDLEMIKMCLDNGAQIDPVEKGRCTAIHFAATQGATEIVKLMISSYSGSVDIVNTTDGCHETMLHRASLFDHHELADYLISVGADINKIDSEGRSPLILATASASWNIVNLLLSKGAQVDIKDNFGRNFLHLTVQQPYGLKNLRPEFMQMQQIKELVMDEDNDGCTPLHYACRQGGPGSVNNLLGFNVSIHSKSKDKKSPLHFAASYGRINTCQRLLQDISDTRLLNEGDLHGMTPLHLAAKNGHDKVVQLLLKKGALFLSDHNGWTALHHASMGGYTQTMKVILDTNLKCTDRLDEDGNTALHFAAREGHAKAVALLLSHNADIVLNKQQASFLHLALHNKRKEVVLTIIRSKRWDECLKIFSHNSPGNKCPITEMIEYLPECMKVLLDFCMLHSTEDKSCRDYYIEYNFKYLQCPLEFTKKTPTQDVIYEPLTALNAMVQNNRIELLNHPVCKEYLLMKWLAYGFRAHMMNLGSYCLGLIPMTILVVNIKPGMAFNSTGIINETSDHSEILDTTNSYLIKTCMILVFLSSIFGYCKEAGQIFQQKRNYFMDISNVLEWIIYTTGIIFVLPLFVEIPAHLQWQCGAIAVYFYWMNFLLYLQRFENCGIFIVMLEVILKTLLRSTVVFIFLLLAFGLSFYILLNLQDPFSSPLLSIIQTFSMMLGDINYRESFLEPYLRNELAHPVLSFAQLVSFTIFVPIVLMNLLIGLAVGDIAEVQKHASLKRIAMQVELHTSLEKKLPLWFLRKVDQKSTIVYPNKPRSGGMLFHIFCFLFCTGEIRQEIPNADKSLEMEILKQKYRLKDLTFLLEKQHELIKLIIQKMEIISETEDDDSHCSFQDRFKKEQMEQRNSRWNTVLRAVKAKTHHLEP

Take `C[C@@H](C(=O)Nc1ccnc(-c2cnc(N3CCC[C@H]3C(F)(F)F)nc2)n1)n1cnc2[nH]c(=O)n(C)c(=O)c21` [Compound 5, (S)-2-(1-methyl-2,6-dioxo-2,3-dihydro-1H-purin-7(6H)-yl)-N-(2′-((S)-2-(trifluoromethyl)pyrrolidin-1-yl)-[2,5′-bipyrimidin]-4-yl)propanamide]: at human TRPA1 (hTRPA1), the IC50 was 663 nM. The half-life at 1 μM in data set [1] was 37.8 min; in data set [3] (setting [6]), greater than 120 min; in data set [3] (setting [7]), 113 min. In data set [2], this compound showed a solubility at 40 min of 4.37 µM (≈ 2.32 µg/mL).

Regarding `C[C@@H](C(=O)Nc1ccnc(-c2cnc(N3CCC[C@H]3C(F)(F)F)nc2)n1)n1cnc2c1c(=O)n(C)c(=O)n2C(F)F` [Compound 6, (S)-2-(3-(difluoromethyl)-1-methyl-2,6-dioxo-2,3-dihydro-1H-purin-7(6H)-yl)-N-(2′-((S)-2-(trifluoromethyl)pyrrolidin-1-yl)-[2,5′-bipyrimidin]-4-yl)propanamide], at human TRPA1 (hTRPA1), the IC50 was found to be 29.7 nM. Moreover, the half-life at 1 μM in data set [1] is 27.4 min; in data set [3] (setting [7]), 118 min. This compound came in with a solubility at 40 min in data set [2] of roughly 23 µM (≈ 13.4 µg/mL).

For the compound `C[C@@H](C(=O)Nc1ccnc(-c2cnc(N3CC(C(F)(F)F)C3)nc2)n1)n1cnc2c1c(=O)n(C)c(=O)n2C` [Compound 13, (S)-2-(1,3-dimethyl-2,6-dioxo-2,3-dihydro-1H-purin-7(6H)-yl)-N-(2′-(3-(trifluoromethyl)azetidin-1-yl)-2,5′-bipyrimidin-4-yl)propanamide], the IC50 on human TRPA1 (hTRPA1) worked out at 62.9 nM. For the same compound, the half-life at 1 μM in data set [1] is greater than 60 min; in data set [3] (setting [7]), 60 min. In data set [2], this compound returned a solubility at 40 min greater than 77.6 µM.

On to `C[C@@H](C(=O)Nc1ccnc(-c2cnc(N3CC4CC4C3)nc2)n1)n1cnc2c1c(=O)n(C)c(=O)n2C` (stereo partly drawn) [Compound 15, (2S)—N-(2′-(3-azabicyclo[3.1.0]hexan-3-yl)-2,5′-bipyrimidin-4-yl)-2-(1,3-dimethyl-2,6-dioxo-2,3-dihydro-1H-purin-7(6H)-yl)propanamide], for which the IC50 on human TRPA1 (hTRPA1) was found to be 26.7 nM. In addition, the values for the half-life at 1 μM in data set [1] and in data set [3] (setting [7]) were 88.8 min and 72.7 min, respectively. Further, the concentration in solution in data set [2] (solubility at 40 min) was 16.3 µM (≈ 7.96 µg/mL). Moreover, the bioavailability in data set [4] was 35%.

With `C[C@@H](C(=O)Nc1ccnc(-c2cnc(N3CCC(C(F)(F)F)C3)nc2)n1)n1cnc2c1c(=O)n(C)c(=O)n2C` (stereo partly drawn) [Compound 16, (2S)-2-(1,3-dimethyl-2,6-dioxo-2,3-dihydro-1H-purin-7(6H)-yl)-N-(2′-(3-(trifluoromethyl)pyrrolidin-1-yl)-2,5′-bipyrimidin-4-yl)propanamide], the IC50 on human TRPA1 (hTRPA1) is 24.9 nM. In addition, the half-life at 1 μM in data set [1] amounted to 52.4 min. The compound also registered a solubility at 40 min in data set [2] greater than 47 µM.

In the case of `Cn1c(=O)c2c(ncn2CC(=O)Nc2ccnc(-c3cnc(N4CCCC4(C)C)nc3)n2)n(C)c1=O` [Compound 18, 2-(1,3-dimethyl-2,6-dioxo-2,3-dihydro-1H-purin-7(6H)-yl)-N-(2′-(2,2-dimethylpyrrolidin-1-yl)-2,5′-bipyrimidin-4-yl)acetamide], the IC50 at human TRPA1 (hTRPA1) was determined as 10.4 nM. Moreover, the “Human Liver Microsomes Hepatic Clearance” value in data set [1] amounted to 15 mL/min/kg. Also, the half-life at 1 μM is 12 min in data set [1] and 21.8 min in data set [3] (setting [7]). The solubility kinetic at 24 h stood at 51 µg/mL (≈ 104 µM) in data set [5] (setting [8]), 17 µg/mL (≈ 34.7 µM) in data set [5] (setting [9]) and 41 µg/mL (≈ 83.6 µM) in data set [5] (setting [10]). The “Hepatic Clearance” value in data set [3] (rat liver microsomes) is given as 24 mL/min/kg.

Turning to `C[C@H]1CCCN1c1ncc(-c2nccc(NC(=O)Cn3cnc4c3c(=O)n(C)c(=O)n4C)n2)cn1` [Compound 19, (S)-2-(1,3-dimethyl-2,6-dioxo-2,3-dihydro-1H-purin-7(6H)-yl)-N-(2′-(2-methylpyrrolidin-1-yl)-2,5′-bipyrimidin-4-yl)acetamide], the IC50 on human TRPA1 (hTRPA1) stood at 96.1 nM. For the same compound, the “Human Liver Microsomes Hepatic Clearance” value in data set [1] stood at 9 mL/min/kg. The half-life at 1 μM in data set [1] stood at 50 min; in data set [3] (setting [6]), 44 min; in data set [3] (setting [7]) it was 63.8 min; in data set [3] (setting [11]) it was 36 min. The same compound gave a solubility at 40 min in data set [2] greater than 18.2 µM. The values for the solubility kinetic at 24 h in data set [5] (setting [8]), in data set [5] (setting [9]) and in data set [5] (setting [10]) were 6 µg/mL (≈ 12.6 µM), 3.5 µg/mL (≈ 7.35 µM) and 10 µg/mL (≈ 21 µM), respectively. Also, the “Hepatic Clearance” value in data set [3] (dog liver microsomes) is 11 mL/min/kg. Moreover, the “Male Hepatic Clearance” value in data set [3] (rat liver microsomes, male) came out at 25 mL/min/kg. The bioavailability in data set [4] amounted to 77%.

With `C[C@H]1CCCN1c1ncc(-c2nccc(NC(=O)[C@H](C)n3cnc4c3c(=O)n(C)c(=O)n4C)n2)cn1` [Compound 21, (S)-2-(1,3-dimethyl-2,6-dioxo-2,3-dihydro-1H-purin-7(6H)-yl)-N-(2′-((S)-2-methylpyrrolidin-1-yl)-[2,5′-bipyrimidin]-4-yl)propanamide], the IC50 at human TRPA1 (hTRPA1) was found to be 51 nM. Moreover, the “Human Liver Microsomes Hepatic Clearance” value in data set [1] stood at 10.5 mL/min/kg. For the same compound, the half-life at 1 μM worked out at 30 min in data set [1]; 66 min in data set [3] (dog liver microsomes, female, read-out: Female Half-Life); 16 min in data set [3] (setting [11]). Besides, the results for the solubility kinetic at 24 h in data set [5] (setting [8]), in data set [5] (setting [9]) and in data set [5] (setting [10]) were 34 µg/mL (≈ 69.3 µM), 10.5 µg/mL (≈ 21.4 µM) and 20 µg/mL (≈ 40.8 µM), respectively. In addition, the “Female Hepatic Clearance” value in data set [3] (dog liver microsomes, female) is on record as 8 mL/min/kg. Moreover, the “Hepatic Clearance” value in data set [3] (rat liver microsomes) is 11 mL/min/kg. Also, in data set [3] (rat liver microsomes, male), the “Male Hepatic Clearance” value is reported as 34 mL/min/kg.

Take `C[C@@H](C(=O)Nc1ccnc(-c2cnc(N3CC4C(C3)C4(F)F)nc2)n1)n1cnc2c1c(=O)n(C)c(=O)n2C` (stereo partly drawn) [Compound 26]: in data set [2], the solubility at 40 min is greater than 15.1 µM.
